pIC50: −log10 of the molar value. Calls of active or inactive are those of the source. No cut-off for these calls is given here.
Columns and labels:
A549 = experiment: Antiproliferative activity against human A549 cells assessed as reduction in cell viability after 48 hrs by MTT assay; format: functional, cell-based; conditions: A549, 48 h
DU-145 = experiment: Antiproliferative activity against human DU-145 cells assessed as reduction in cell viability after 48 hrs by MTT assay; format: functional, cell-based; conditions: DU-145, 48 h
MDA-MB-231 = experiment: Antiproliferative activity against human MDA-MB-231 cells assessed as reduction in cell viability after 48 hrs by MTT assay; format: functional, cell-based; conditions: MDA-MB-231, 48 h
SiHa = experiment: Antiproliferative activity against human SiHa cells assessed as reduction in cell viability after 48 hrs by MTT assay; format: functional, cell-based
U-87 MG = experiment: Antiproliferative activity against human U87 cells assessed as reduction in cell viability after 48 hrs by MTT assay; format: functional, cell-based, U-87MG ATCC
PC-3 [1] = experiment: Antiproliferative activity against human PC3 cells assessed as reduction in cell viability after 48 hrs by MTT assay; format: functional, cell-based; conditions: PC-3, 48 h
HT-29 = experiment: Antiproliferative activity against human HT-29 cells assessed as reduction in cell viability after 48 hrs by MTT assay; format: functional, cell-based; conditions: HT-29, 48 h
L132 = experiment: Cytotoxicity against human L132 cells assessed as reduction in cell viability after 48 hrs by MTT assay; format: cell-based; conditions: L132, 48 h
PC-3 [2] = experiment: Induction of cell cycle arrest in human PC-3 cells assessed as accumulation at Sub-G1 phase at 5 uM after 48 hrs by propidium iodide staining based flow cytometric analysis (reference value: 3.58%); format: functional
PC-3 [3] = experiment: Induction of cell cycle arrest in human PC-3 cells assessed as accumulation at G0/G1 phase at 5 uM after 48 hrs by propidium iodide staining based flow cytometric analysis (reference value: 67.6%); format: functional
PC-3 [4] = experiment: Induction of cell cycle arrest in human PC-3 cells assessed as accumulation at S phase at 5 uM after 48 hrs by propidium iodide staining based flow cytometric analysis (reference value: 7.69%); format: functional
PC-3 [5] = experiment: Induction of cell cycle arrest in human PC-3 cells assessed as accumulation at G2/M phase at 5 uM after 48 hrs by propidium iodide staining based flow cytometric analysis (reference value: 20.7%); format: functional
PC-3 [6] = experiment: Induction of cell cycle arrest in human PC-3 cells assessed as accumulation at Sub-G1 phase at 10 uM after 48 hrs by propidium iodide staining based flow cytometric analysis (reference value: 3.58%); format: functional
PC-3 [7] = experiment: Induction of cell cycle arrest in human PC-3 cells assessed as accumulation at G0/G1 phase at 10 uM after 48 hrs by propidium iodide staining based flow cytometric analysis (reference value: 67.6%); format: functional
PC-3 [8] = experiment: Induction of cell cycle arrest in human PC-3 cells assessed as accumulation at S phase at 10 uM after 48 hrs by propidium iodide staining based flow cytometric analysis (reference value: 7.69%); format: functional
PC-3 [9] = experiment: Induction of cell cycle arrest in human PC-3 cells assessed as accumulation at G2/M phase at 10 uM after 48 hrs by propidium iodide staining based flow cytometric analysis (reference value: 20.7%); format: functional
PC-3 [10] = experiment: Induction of apoptosis in human PC-3 cells assessed as fragmented nuclei at 5 to 10 uM after 48 hrs by Hoechst 33258 staining fluorescence microscopic analysis; format: functional, cell-based; conditions: dose 5-10 µM
PC-3 [11] = experiment: Induction of apoptosis in human PC-3 cells assessed as condensed chromatin at 5 to 10 uM after 48 hrs by Hoechst 33258 staining fluorescence microscopic analysis; format: functional, cell-based; conditions: dose 5-10 µM
PC-3 [12] = experiment: Induction of apoptosis in human PC-3 cells assessed as horse shoe shaped nuclei at 5 to 10 uM after 48 hrs by Hoechst 33258 staining fluorescence microscopic analysis; format: functional, cell-based; conditions: dose 5-10 µM
PC-3 [13] = experiment: Induction of apoptosis in human PC-3 cells assessed as condensed chromatin at 5 to 10 uM after 48 hrs by acridine orange and ethidium bromide staining fluorescence microscopic analysis; format: functional, cell-based; conditions: dose 5-10 µM
PC-3 [14] = experiment: Induction of apoptosis in human PC-3 cells assessed as destructive fragmentation of nuclei at 5 to 10 uM after 48 hrs by acridine orange and ethidium bromide staining fluorescence microscopic analysis; format: functional, cell-based; conditions: dose 5-10 µM
PC-3 [15] = experiment: Induction of ROS generation in human PC-3 cells at 10 uM incubated for 6 hrs by DSCFDA staining based spectroflurometric method; format: functional, cell-based
PC-3 [16] = experiment: Induction of mitochondrial membrane potential loss in human PC-3 cells at 10 uM after 24 hrs by JC-1 dye based flow cytometric analysis relative to control; format: functional
PC-3 [17] = experiment: Induction of apoptosis in human PC-3 cells after 24 hrs by Annexin VFITC/PI staining based flow cytometric analysis; format: functional, cell-based
PC-3 [18] = experiment: Induction of apoptosis in human PC-3 cells assessed as viable cells at 2.5 uM after 24 hrs by Annexin VFITC/PI staining based flow cytometric analysis (reference value: 95.8%); format: functional; conditions: read-out: Activity
PC-3 [19] = experiment: Induction of apoptosis in human PC-3 cells assessed as viable cells at 5 uM after 24 hrs by Annexin VFITC/PI staining based flow cytometric analysis (reference value: 95.8%); format: functional; conditions: read-out: Activity
PC-3 [20] = experiment: Induction of apoptosis in human PC-3 cells assessed as viable cells at 7.5 uM after 24 hrs by Annexin VFITC/PI staining based flow cytometric analysis (reference value: 95.8%); format: functional; conditions: read-out: Activity
PC-3 [21] = experiment: Induction of apoptosis in human PC-3 cells assessed as early apoptotic cells at 2.5 uM after 24 hrs by Annexin VFITC/PI staining based flow cytometric analysis (reference value: 0.1%); format: functional
PC-3 [22] = experiment: Induction of apoptosis in human PC-3 cells assessed as early apoptotic cells at 5 uM after 24 hrs by Annexin VFITC/PI staining based flow cytometric analysis (reference value: 0.1%); format: functional
PC-3 [23] = experiment: Induction of apoptosis in human PC-3 cells assessed as early apoptotic cells at 7.5 uM after 24 hrs by Annexin VFITC/PI staining based flow cytometric analysis (reference value: 0.1%); format: functional
PC-3 [24] = experiment: Induction of apoptosis in human PC-3 cells assessed as late apoptotic cells at 7.5 uM after 24 hrs by Annexin VFITC/PI staining based flow cytometric analysis (reference value: 0.2%); format: functional
PC-3 [25] = experiment: Induction of apoptosis in human PC-3 cells assessed as late apoptotic cells at 5 uM after 24 hrs by Annexin VFITC/PI staining based flow cytometric analysis (reference value: 0.2%); format: functional
PC-3 [26] = experiment: Induction of apoptosis in human PC-3 cells assessed as late apoptotic cells at 2.5 uM after 24 hrs by Annexin VFITC/PI staining based flow cytometric analysis (reference value: 0.2%); format: functional
PC-3 [27] = experiment: Induction of apoptosis in human PC-3 cells assessed as necrotic cells at 2.5 uM after 24 hrs by Annexin VFITC/PI staining based flow cytometric analysis (reference value: 4%); format: functional
PC-3 [28] = experiment: Induction of apoptosis in human PC-3 cells assessed as necrotic cells at 5 uM after 24 hrs by Annexin VFITC/PI staining based flow cytometric analysis (reference value: 4%); format: functional
PC-3 [29] = experiment: Induction of apoptosis in human PC-3 cells assessed as necrotic cells at 7.5 uM after 24 hrs by Annexin VFITC/PI staining based flow cytometric analysis (reference value: 4%); format: functional
[30] = Inhibition of Saccharomyces cerevisiae alpha-glucosidase using p-nitophenyl alpha […]D-glucoside incubated for 45 mins
[31] = Inhibition of LPS-induced TNF-alpha expression in human U-937 cells preincubated for 1 hr followed by LPS addition and measured after 24 hrs by ELISA; format: functional, cell-based
[32] = Inhibition of LPS-induced IL-1beta expression in human U-937 cells preincubated for 1 hr followed by LPS addition and measured after 24 hrs by ELISA; format: functional, cell-based

## C/C(=C\CC/C(C)=C/CC[C@@H]1[C@@]2(C)CCC(=O)C(C)(C)[C@H]2CC[C@@]1(C)O)CC/C=C(\C)C(=O)OCc1cn(-c2cccc(O)c2)nn1
A549
  pIC50: 4.37
DU-145
  pIC50: 4.55
MDA-MB-231
  pIC50: 3.86
SiHa
  pIC50: 4.32
U-87 MG
  pIC50: < 3.82
PC-3 [1]
  pIC50: 5.18
HT-29
  pIC50: 4.41
L132
  pIC50: 3.83
PC-3 [2]
  Activity: 2.09%
PC-3 [3]
  Activity: 66.5%
PC-3 [4]
  Activity: 8.26%
PC-3 [5]
  Activity: 22.7%
PC-3 [6]
  Activity: 2.16%
PC-3 [7]
  Activity: 66.5%
PC-3 [8]
  Activity: 7.54%
PC-3 [9]
  Activity: 23.4%
PC-3 [10]
  Activity: Active
PC-3 [11]
  Activity: Active
PC-3 [12]
  Activity: Active
PC-3 [13]
  Activity: Active
PC-3 [14]
  Activity: Active
PC-3 [15]
  Activity: Active
PC-3 [16]
  Activity: 22%
PC-3 [17]
  Activity: Dose-dependent effect
PC-3 [18]
  viability at 2.5 µM: 27.7%
PC-3 [19]
  viability at 5 µM: 29.3%
PC-3 [20]
  viability at 7.5 µM: 31.7%
PC-3 [21]
  Activity: 62.9%
PC-3 [22]
  Activity: 58.8%
PC-3 [23]
  Activity: 54.8%
PC-3 [24]
  Activity: 12.1%
PC-3 [25]
  Activity: 10.9%
PC-3 [26]
  Activity: 8.7%
PC-3 [27]
  Activity: 0.8%
PC-3 [28]
  Activity: 1%
PC-3 [29]
  Activity: 1.4%
[30]
  pIC50: 4.85

## C/C(=C\CC/C(C)=C/CC[C@@H]1[C@@]2(C)CCC(=O)C(C)(C)[C@H]2CC[C@@]1(C)O)CC/C=C(\C)C(=O)OCc1cn(C[C@@H]2O[C@H](n3ccc(=O)[nH]c3=O)C[C@H]2O)nn1
A549
  pIC50: 4.55
DU-145
  pIC50: 4.48
MDA-MB-231
  pIC50: 4.58
SiHa
  pIC50: 4.53
U-87 MG
  pIC50: 4.12
PC-3 [1]
  pIC50: 4.96
HT-29
  pIC50: 4.47
L132
  pIC50: 3.83
PC-3 [2]
  Activity: 5.96%
PC-3 [3]
  Activity: 68.7%
PC-3 [4]
  Activity: 8.38%
PC-3 [5]
  Activity: 16.6%
PC-3 [6]
  Activity: 40.8%
PC-3 [7]
  Activity: 41%
PC-3 [8]
  Activity: 6.76%
PC-3 [9]
  Activity: 11.1%
PC-3 [10]
  Activity: Active
PC-3 [11]
  Activity: Active
PC-3 [12]
  Activity: Active
PC-3 [13]
  Activity: Active
PC-3 [14]
  Activity: Active
PC-3 [15]
  Activity: Active
PC-3 [16]
  Activity: 38%
PC-3 [17]
  Activity: Dose-dependent effect
PC-3 [18]
  viability at 2.5 µM: 26.9%
PC-3 [19]
  viability at 5 µM: 27.1%
PC-3 [20]
  viability at 7.5 µM: 27.9%
PC-3 [21]
  Activity: 64.6%
PC-3 [22]
  Activity: 59.4%
PC-3 [23]
  Activity: 58.3%
PC-3 [24]
  Activity: 12.8%
PC-3 [25]
  Activity: 12.5%
PC-3 [26]
  Activity: 8.6%
PC-3 [27]
  Activity: 0.9%
PC-3 [28]
  Activity: 1%
PC-3 [29]
  Activity: 1%
[31]
  pIC50: 5.05
[32]
  pIC50: 5.03
